Laboratory results: patent US20030040436A1 (priority 2000, published 2003)

Columns and labels:
moss = experiment: Control of moss on greenhouse wall and ground; conditions: 5% (w/v), sprayed to run-off, one application, within 24 hours
Phormidium algae [1] = experiment: Well-plate assay of algicidal activity; conditions: for Lethality: 24 hours under fluorescent light
Experimental: Liquid cultures of Phormidiumalgae were homogenized into individual cells in a standard laboratory blender apparatus. One hundred fifty μl of the homogenized algal suspension were added to the wells of 96-well assay plates using multitip-transfer pipettes. To each well, 150 μl of various dilutions of the test formulation were added, such that final concentrations of bcnzyl benzoate in the test wells were 0.8%, 0.3%, and 0.1%. The plates were allowed to incubation under fluorescent light for 24 hours.

[2] = test system: Tiffway hybrid bermudagrass and SR1020 bentgrass; experiment: Phytotoxic field testing on grass test surfaces; type: in vivo; conditions: highest concentration (0.8% w/v), one square foot test surfaces
Excerpt: This formulation was applied to two grass species, Tiffway hybrid bermudagrass and SR1020 bentgrass. One square foot test surfaces of each grass type were used. The test formulation was applied to test surfaces in dilutions corresponding to 0.8, 0.3, and 0.1% (w/v) benzyl benzoate.

[3] = test system: SRI 020 bentgrass or Tiffway hybrid bermudagrass; experiment: Field test, spray application: toxicity to the grass; type: in vivo, SRI 020 bentgrass; Tiffway hybrid bermudagrass; conditions: all concentrations tested (0.8, 0.3, 0.1% w/v), single spray application
Excerpt: (§1) Each of the three concentrations and negative controls without benzyl benzoate were applied to one square foot of SRI 020 bentgrass or Tiffway hybrid bermudagrass, which was naturally infected with Phormidiumalgae, with a single spray application. The turfgrass was examined empirically for control of the algae as well and toxicity to the grass.

Phormidium algae [4] = experiment: Field test, spray application: control of algae on turfgrass; type: in vivo; conditions: single spray application, several days following
Excerpt: as §1

Phormidium algae [5] = experiment: Filter paper assay of algicidal activity; type: cell-based; conditions: for Zone of Inhibition: observed 4 days after start
Excerpt: Briefly, the filter paper assay is designed to approximate an environment such as that found on a golf course, where algal pests can be particularly damaging. Blended fragment suspensions of Phormidium algae were passed through a coarse Whatman filter paper circle to collect the algal cells. The filter paper was then placed in a large Petri dish containing moist sand. The desired concentration of 10% benzyl benzoate formulation (0.8, 0.3 and 0.1% (w/v) final concentration) was placed on marked areas of the algae field to determine toxic effects. Observations were made 4 days after the test was initiated and were compared to control experiments using the known pesticide Daconil.

Row | Structure (SMILES) | phytotoxicity to moss (moss) | Comments (efficacy compared to Daconil) (Phormidium algae [1]; 0.1% benzyl benzoate) | Lethality (Phormidium algae [1]; 0.1% benzyl benzoate final concentration) | Comments (efficacy compared to Daconil) (Phormidium algae [1]; 0.3% benzyl benzoate) | Lethality (Phormidium algae [1]; 0.3% benzyl benzoate final concentration) | Comments (efficacy compared to Daconil) (Phormidium algae [1]; 0.8% benzyl benzoate) | Lethality (Phormidium algae [1]; 0.8% benzyl benzoate final concentration) | phytotoxicity [2] | phytotoxic effect (chemical burn) on the two grass species [3] | algae control (Phormidium algae [4]; 0.3% (w/v)) | algae control (Phormidium algae [4]; 0.8% (w/v)) | Zone of Inhibition (Phormidium algae [5]; 0.1% (w/v) benzyl benzoate) | killing Phormidium (Phormidium algae [5]; 0.3% (w/v) benzyl benzoate) | Zone of Inhibition (Phormidium algae [5]; 0.3% (w/v) benzyl benzoate) | killing Phormidium (Phormidium algae [5]; 0.8% (w/v) benzyl benzoate) | Zone of Inhibition (Phormidium algae [5]; 0.8% (w/v) benzyl benzoate)
1 | CCCCCCC(C=O)=Cc1ccccc1 [HCA, α-hexyl cinnamic aldehyde, reference compound] | phytotoxic to moss | – | – | – | – | – | – | – | – | – | – | – | – | – | – | –
2 | O=C(OCc1ccccc1)c1ccccc1 [benzyl benzoate] | – | Same efficacy as | no | Superior to Daconil | yes | Superior to Daconil | yes | Only small signs of phytotoxicity | minimal phytotoxic effect | significant level of control | most effective algae control | no | very effective | yes | very effective | yes
3 | O=C(OCc1ccccc1)c1ccccc1O [benzyl salicylate] | phytotoxic to moss | – | – | – | – | – | – | – | – | – | – | – | – | – | – | –
